Several values for one entry are separate records, joined by “and”; a condition that tells them apart may be missing. Equal entries are not always repeated. Structures can show the parent of a compound that is named as a salt. Numbered stars: 1 amine (or outer) side, 2 acyl side, 3 side chain; on linkers, the order of the positions; unused ones are H or OH. Square brackets hold non-standard residues; d marks the D form. Peptide text beside a SMILES is read from it. X1 = O=C1C(N[*:1])Cc2ccccc2CN1CCC(=O)[*:2]; Dmt = Cc1cc(O)cc(C)c1C[C@H](N)C(=O)O
Experiments:
[1] = tested on: Sprague-Dawley rats; assay: Whole-body plethysmography, respiratory effects in rats; details: for Inspiratory time E0 / Inspiratory time Emax / Peak of respiratory effects (time) / TI, AUC method, in comparison to controls / Effect on expiratory time (TE) versus baseline, time-course / Effect on minute volume (VM) versus baseline, time-course: IV; for Inspiratory time E0 / Inspiratory time Emax: rats, TI(Tmax) − TI(T0), sigmoidal Emax model, mean (CV%); for Peak of respiratory effects (time) / TI, AUC method, in comparison to controls: time-course study 3A; for Effect on expiratory time (TE) versus baseline, time-course: KGNOP1 from 5 to 240 min, KGOP1 from 15 to 120 min; for Effect on minute volume (VM) versus baseline, time-course: morphine at 30 min, KGNOP1 from 5 to 45 min, KGOP1 at 15 min; for Time after injection at which significant increase in TI started: IV 17.52 μmol/kg morphine, 17.62 μmol/kg tramadol, 0.34 μmol/kg KGNOP1 or KGOP1
[2] = as above; details: Sprague-Dawley, rat, in vivo, iv; for ED50: rats, plethysmography at Tmax, sigmoidal Emax model, mean (CV%)
[3] = cited from earlier work
[4] = cited from earlier work; for Blood–brain barrier transport mechanism: in vitro cell-based human model with BBB-PAMPA
[5] = target: NOP receptor; parameters: method as in PMID 27035422; details: mean ± SEM; read-out: Binding affinity (Ki) NOP receptor; cited from earlier work
[6] = tested on: SN-CCI Sprague-Dawley rats; assay: Cold-plate test, cold hyperalgesia in SN-CCI rats; assay type: in vivo, rat; details: for Persistence of effects on cold hyperalgesia after injection: IV 0.34 μmol/kg KGNOP1 or KGNOP3 (persisted up to), 17.62 μmol/kg tramadol (declined after), observation 420 min; for Cold hyperalgesia Tmax (time of peak effect): IV 0.34 μmol/kg KGNOP1 or KGNOP3, 17.62 μmol/kg tramadol
Protocol: We used the chronic constriction injury of the sciatic nerve (SN-CCI) model to induce neuropathic pain in rats.[4] The rat's right sciatic nerve was exposed under anesthesia using ketamine (70 mg/kg intraperitoneally [IP]) and xylazine (10 mg/kg IP). Subsequently, the nerve was ligated proximally to the sciatic trifurcation with four 4-0 chromic gut sutures (Ethicon, Issy-les-Moulineaux, France). Rats were then returned to their individual cages for a recovery period of 14 days, allowing complete anesthesia washout and neuropathic pain development.
The individual SN-CCI rats were kept inside a transparent cylinder on the cooled surface of the plate (4.0°C ± 0.2°C; Panlab, Barcelona, Spain).[15] The total leg lift counts of the right hind paw were counted for 5 minutes. Counts were excluded when the hind paw was lifted while walking. The first measurement was performed after a 10-minute period of accommodation while the animal was quiet. Drugs were intravenously (IV) administered at T0. […] The percentage of decrease in leg lift counts was calculated based on the following equation: [drawing 1]
Cold hyperalgesia was assessed during 420 minutes after the drug administration. Tmax was determined for each drug.

[7] = target: δ-opioid receptor; parameters: method as in PMID 27035422; details: mean ± SEM; read-out: Binding affinity (Ki) δ-opioid receptor; cited from earlier work
[8] = tested on: guinea pig ileum (mu-opioid receptor); parameters: method as in PMID 27035422; details: mean ± SEM, read-out: Opioid activity (IC50) GPI; cited from earlier work
[9] = tested on: Sprague-Dawley rats; assay: Hot-plate test, thermal nociception in rats; assay type: in vivo, rat; details: IV, sigmoidal Emax model
Protocol: The individual rats were kept inside a transparent cylinder on the heated surface of the plate (52.0°C ± 0.2°C; Panlab).[27] Licking, brisk shaking of the hind paw, and jumping were considered as signs of thermal nociception. The cut-off time was set at 60 seconds. The first measurement was performed after a 10-minute period of accommodation while the animal was quiet. Drugs were intravenously (IV) administered at T0. Thermal nociception was recorded at −30, −15, −5, 5, 10, 15, 30, 45, 60, 90, 120, 180, 240, 300, 360, and 420 minutes (study 2A). […] The maximum possible effect (MPE%) was calculated based on the following equation: [drawing 2]
The pharmacological model was applied to the investigated drug effects using the maximum likelihood expectation maximization algorithm implemented in WinNonlin (Version 5.1; Pharsight, Princeton, NJ). A standard error variance model was defined as: [drawing 4] where yi is the ith predicted value from the pharmacological model. All model parameters were assumed to be log-normally distributed. Model selection was based on goodness-of-fit criteria, which included the convergence criterion (CV%), the Akaike information criterion, the estimation criterion value for the maximum likelihood method, and the visual inspection of predicted vs observed and residual plots. Estimated parameters for dose–effect relationships are expressed as mean (CV%).
Thermal nociception was measured during 420 minutes after the drug administration. Tmax was determined for each drug.
Thermal nociception was performed to assess the ED50 at the Tmax previously observed in study 2A.

[10] = tested on: Sprague-Dawley rats; assay: Benefit-to-respiratory toxicity ratio (ED50 ratio); details: from ED50 on cold hyperalgesia and ED50 on VM, SN-CCI rat, IV
[11] = IV, SN-CCI rats, sigmoidal Emax model, mean (CV%)

Row | SMILES | Inspiratory time E0 [1] | Inspiratory time Emax [1] | Peak of respiratory effects (time) [1] [min] | TI, AUC method, in comparison to controls [1] | Effect on expiratory time (TE) versus baseline, time-course [1] | Effect on minute volume (VM) versus baseline, time-course [1] | Tmax ([2]; 0.34 μmol/kg) [h] | ED50 ([2]; Inspiratory time (TI) ED50, IV) [µmol/kg] | ED50 ([2]; Minute volume (VM) ED50, IV) [µmol/kg] | Blood–brain barrier transport mechanism [4] | Persistence of effects on cold hyperalgesia after injection [6] | Cold hyperalgesia Tmax (time of peak effect) ([6]; SN-CCI rats) [min] | Cold hyperalgesia E0 (baseline effect) [6, 11] | Cold hyperalgesia Emax [6, 11] | Time after injection at which significant increase in TI started [1] [min] | further results
1 | CC[C@H](C)[C@H](NC(=O)[C@H](CCCNC(=N)N)NC(=O)[C@H](Cc1ccc(O)cc1)NC(=O)[C@H](Cc1ccc(O)cc1)NC(=O)[C@H](CCCNC(=N)N)NC(=O)CCN1Cc2ccccc2CC(NC(=O)[C@@H](CCCNC(=N)N)NC(=O)[C@@H](N)Cc2c(C)cc(O)cc2C)C1=O)C(=O)N[C@@H](CCCCN)C(N)=O (stereo partly drawn) [KGNOP1, H-Dmt-D-Arg-Aba-βAla-Arg-Tyr-Tyr-Arg-Ile-Lys-NH2] (H-[Dmt][dR][X1]RYYRIK-NH2) | 0.06 (13.1) s | 0.16 (16.1) s | 180 | not | significantly decreased | increased | 3 | 0.63 | 0.57 | transported by active mechanisms and not through passive diffusion |  |  |  |  |  | VT, AUC method, in comparison to morphine-treated rats ([1]; IV 0.34 μmol/kg, P < 0.05): significantly decreased; TE, AUC method, in comparison to morphine- and tramadol-treated rats ([1]; IV 0.34 μmol/kg, P < 0.05 and P < 0.01): significantly decreased; Stability against enzymatic degradation [3]: has stability against enzymatic degradation; Blood–brain barrier penetration [4]: able to penetrate the blood–brain barrier
2 | CC[C@H](C)[C@H](NC(=O)[C@H](CCCNC(=N)N)NC(=O)[C@H](Cc1ccc(O)cc1)NC(=O)[C@H](Cc1ccc(O)cc1)NC(=O)[C@H](CCCNC(=N)N)NC(C)=O)C(=O)N[C@@H](CCCCN)C(N)=O [KGNOP3, Ac-Arg-Tyr-Tyr-Arg-Ile-Lys-NH2] |  |  |  |  |  |  |  |  |  | transported by active mechanisms and not through passive diffusion | […] | 5 | −20.1 (20.7) % | −76 (5.1) % |  | Ki [5]: […]; Cold hyperalgesia ED50 ([6]; IV, SN-CCI rats, cold-plate test at Tmax, sigmoidal Emax model, mean (CV%)): 0.32 μmol/kg and 0.29 (9) μmol/kg
3 | Cc1cc(O)cc(C)c1C[C@H](N)C(=O)N[C@H](CCCNC(=N)N)C(=O)NC1Cc2ccccc2CN(CCC(N)=O)C1=O (stereo partly drawn) [KGOP1, H-Dmt-D-Arg-Aba-βAla-NH2] | 0.029 (9.7) s | 0.15 (15.1) s | 240 | not | significantly decreased | increased | 4 | 0.52 | 0.66 | transported by active mechanisms and not through passive diffusion |  |  |  |  |  | Ki [7]: 17 ± 0.3 nM; IC50 [8]: 0.8 ± 0.1 nM
4 | CN1CC[C@]23c4c5ccc(O)c4O[C@H]2[C@@H](O)C=C[C@H]3[C@H]1C5 [Morphine, Morphine sulfate, reference compound] | 0.006 (11.5) s | 0.16 (5.9) s |  |  | did not exhibit significant effects | decreased |  | 12.2 | 10.6 |  |  |  |  |  | 5 | Effect on tidal volume (VT) versus baseline, time-course ([1]; IV 17.52 μmol/kg, at 5, 90, 120, 180, 240, 300 and 360 min): reduction; Thermal nociception Emax ([9]; MPE%, mean (CV%)): 100 (5.1) %; Thermal nociception E0 (baseline effect) ([9]; * fixed value): 0* %; ED50 ([9]; Rattus norvegicus, hot-plate test at Tmax, mean (CV%)): 14.7 µmol/kg
5 | COc1cccc(C2(O)CCCCC2CN(C)C)c1 (stereo not drawn) [Tramadol, Tramadol hydrochloride, reference compound] | 0.006 (14.7) s | 0.17 (34.6) s | 30 | not | did not exhibit significant effects |  |  | 50.9 | 50 |  | 60 min | 5 | −26.4 (21.6) % | −92 (5.6) % | 180 | VM, AUC method, compared to controls ([1]; IV 17.62 μmol/kg, P < 0.05): significantly decreased; Tmax [2]: 0.5 h; ED50 ([6]; Rattus norvegicus, IV, SN-CCI rats, cold-plate test at Tmax, sigmoidal Emax model, mean (CV%)): 12.1 µmol/kg; Benefit-to-respiratory toxicity ratio, neuropathic pain (ED50 ratio) [10]: 0.24
